Entries after “also recorded” stand apart in the source; their conditions may differ. Square brackets hold non-standard residues; d marks the D form. Peptide text beside a SMILES is read from it. dHyp = O=C(O)[C@H]1C[C@H](O)CN1
Legend:
[1] = test system: human osteoblast cultures; details: dye transfer after Lucifer Yellow injection; cited from earlier work
the receptor = assay: in situ binding and animal studies
Experimental: Compounds used in this example were made using standard solid phase Fmoc chemistry. See the prior examples. Identification was performed by mass spectrometry, and the purity, determined by RP-HPLC. […] Initial studies with compound 1 in 1 nM, 10 nM, 50 nM and 100 nM will determine whether studies with the following peptides compound 3 (H-GAG-4-Hyp-PY-NH2) and compound 4 (H-GNY-NH2) are conducted. These studies will also determine whether studies involving specific kinase inhibitors are conducted.

connexin hemi-channels [2] = assay: calcein dye uptake in cardiomyocytes under ischemia mimicking solution (Example 4); assay type: cell-based, rat; details: 10 nM co-incubation during metabolic stress (stress alone 38% higher), n=6
Experimental: 1. Cell culture: Briefly, the hearts from 20 neonate rats (age 1–2 days) were excised aseptically. The ventricles were isolated and cut into 4–6 pieces, which are digested in several steps in a Hanks buffered saline with trypsin and DNAse. The cells were then centrifuged and resuspended in MEM with 5% FCS. To eliminate non-muscle cells the suspension was preplated in petri dishes for 30 minutes at 37° C. The cells in suspesion were then seeded onto collagen coated coverslips.
2. Dye-uptake: The cover slips with cardiomyocytes were incubated for 30 minutes with control solution (PBS) containing in mM: Na^+ 152, K^+ 4.2, Cl^− 141.5, PO4^3− 9.5, Ca^2+ 0.9, Mg^2+ 0.5, glucose 6, pH 7.4. or an ischmia mimicking (injury) solution (as control only K^+ 8.2, no glucose, 10 mM deoxy-glucose, pH 6.5), both solutions containing 200 μM calcein. Then the cells were washed for 10 minutes with control solution.
The cover slips were mounted in an open chamber on the stage of an inverted microscope. Ten random fields were chosen and from each field three cells were chosen under conventional light microscopy. Then the cells were excited by 480 nm light and the fluorescence emmision measured at 510 nm, where the emission intensity is a measure of dye-uptake.
The effect of the compound 1 on dye-uptake was investigated under two conditions: […]

connexin 43 (Cx43) = assay: immunoprecipitation and immunoblot of phosphorylated connexin 43; assay type: cell-based
Experimental: H9c2 cells were seeded in 24-multi well dishes in a density of 7,900 cells/cm^2 (˜15,000 cells/well) and grown for 3 days in MEM suplemented with 10% foetal calf serum (FCS) and 1000 units penicillin/1000 μg streptomycin (pen/strep) in an atmosphere of 5% CO2 and 100% humidity at 37° C.
The labelled cells were incubated in Triton X-100 lysis buffer (˜5*10^7 cells/ml) for 1 hr at 4° C. The lysate is centrifuged 30 min at 20,000*g for 30 min. The supernatant was precleared by adding 10 ul Sepharose per 200 μl supernatant. The precleared supernatant were then added 0.5–1 μg phospho-tyrosine or phospho-serine antibodies (Sigma) and incubated for 1.5 hr at 4° C. in an orbital shaker. The antibody-complex was then captured by incubation with 50 μl of a 1:1 slurry of protein G Sepharose for 1.5 hr. Finally the complex were extensively washed with 0.1% (w/v) Triton X-100, 50 mM Tris, pH 7.4, 300 mM NaCl and 5 mM EDTA.
The complexes were loaded onto a 12% SDS gel and blotted onto a PVDF membrane. The membrane is blocked with 0.1% Tween 20, 50 mM Tris, pH 7.4, 300 mM NaCl, 5% dry milk (TBST) for minimum 2 h. The membrane was subsequently incubated with connexin 43 specific antibodies (Zymed) for 1.5 h at RT and developed with ECL+ (Amersham).

[3] = test system: osteoblastic rat osteosarcoma cell lines; details: dye transfer after Lucifer Yellow injection; cited from earlier work
Ventricular myocytes = assay: volume measurements in cardiomyocytes during metabolic inhibition; assay type: cell-based, rat; details: 0.1 nM in stress medium, six experiments (stress alone 1.06±0.02, control 0.94±0.04)
Experimental: 1. Methods: Ventricular myocytes were isolated from neonate rats by trypsin digestion and plated onto collagen-coated cover slips. After four days the myocytes formed confluent and synchronously beating sheets of cells. To measure cell volume cells were loaded with calcein-AM (5 μM in control buffer) for 15 minutes at 37° C. and the cover slips mounted in an open bath chamber. The following experiments were performed at room temperature. Using a Leica laser confocal microscope, an optical cross-section was performed every 20 seconds throughout the duration of the experiments.
The optical cross-sections were analyzed using Metamorph (Universal Imaging). The area of the cell was determined as the area of pixels with fluorescence intensities higher than a threshold value chosen to minimize background induced fluctuations. Data are presented as relative volumes by dividing each value by the average area under control conditions (the last measurement before metabolic stress).
(§1) Solutions: Control buffer (in mM): NaCl 136, KCl 4, MgCl2 0.8, CaCl2 1.8 HEPES 5, MES 5, Glucose 6, pH 7.3 Stress buffer (in mM): NaCl 136, KCl 8, MgCl2 0.8, CaCl2 1.8 HEPES 5, MES 5, Deoxy-glucose 10, pH 6.2

connexin hemi-channels [4] = assay: calcein dye uptake in cardiomyocytes under stress buffer (Example 6); assay type: cell-based, rat
Experimental: 1. Methods Ventricular myocytes were isolated from neonate rats by trypsin digestion and plated onto collagen-coated cover slips. After four days the myocytes formed confluent and synchronously beating sheets of cells. To measure dye uptake, cells were incubated in buffer containing 200 μM calcein for 30 minutes at room temperature. Then coverslips were thoroughly washed with control buffer and mounted in an open bath chamber and superfused with control buffer (RT). Cells were excited with 480 nm light by means of a Xenon lamp and a monochromator. Images of the fluorescence emitted at 510 nm were collected by a cooled CCD camera (Sensicam). Excitation control and image acquisition was controlled using Imaging workbench (Axon).
Under light microscopy three regions were placed over cardiomyocytes in an image. Then average fluorescence intensity was measured, and the procedure was repeated until 30 regions in 10 images had been measured. The average of these measurements were used as value for the given experimental condition, that is n=1. In each series one control incubation was performed and all experimental values are given as relative to this value.
as §1

in vivo = details: rat, ip
Experimental: Compound 1 was delivered by an osmotic minipump (Alzet model 2ML4) that was inserted into the intraperitoneal (i.p.) cavity immediately prior to induction of the myocardial infarction. The pump was filled with vehicle (isotonic saline) or Compound 1 and primed at 37° C. for 24 hours prior to the operation. In order to ensure that the therapeutic plasma concentration was obtained already at the time of infarction, a loading dose of Compound 1 was given s.c. prior to ligation of the LAD.
After administration of the s.c. loading dose of Compound 1 and after i.p. insertion of the osmotic minipump, a left thoracotomy was performed, and the left anterior decending artery was ligated using a 6-0 silk suture. The thorax is closed in layers, and a negative pressure was induced in the pleural cavity to unfold the lungs. Sham-operated animals were subjected to the same procedure without ligation of the LAD. Postoperatively, the animal were allowed to recover in a heated cabinet at 30° C. with 50% oxygen until the next morning. To prevent dehydration during the recovery period, the rat was given 5 ml 5% glucose s.c. immediately after completion of surgery and another 5 ml 5% glucose at 4 p.m. To relieve postoperative pain, the rat was treated with buprenorphine (20 μg/100 g s.c. b.i.d.) and meloxicam (0.1 mg/100 g s.c. once daily) for three days after the myocardial infarction. […] Plasma concentrations of Compound 1 were measured by mass spectrometry following solid phase extraction.

Which “reversal of hypoxia-induced decrease of calcium wave propagation” value [1] does the source give for `CC(=O)N[C@H](Cc1ccc(O)cc1)C(=O)N1CCC[C@@H]1C(=O)N1C[C@@H](O)C[C@@H]1C(=O)NCC(=O)N[C@H](C)C(=O)NCC(N)=O` [Compound 1, Ac-D-Tyr-D-Pro-D-4Hyp-Gly-D-Ala-Gly-NH2] (Ac-[dY][dP][dHyp]G[dA]G-NH2) here?
The value was “completely reversed”.

And the “binding to the receptor” value (the receptor)?
The value was “nano-molar range”.

And the “calcein dye uptake above control cells” value (connexin hemi-channels [2])?
The value was 5%.

And the “connexin 43 tyrosine phosphorylation” value (connexin 43 (Cx43); cardiomyocytes exposed for 4 h with 0, 1, 10, 50 and 100 nM)?
The value was “increase connexin 43 tyrosine phosphorylation”.

What about the “tyrosine phosphorylation of connexin 43” value (connexin 43 (Cx43); cultured H9c2 cardiomyocytes) of the same compound?
Its value is “phosphorylation of Cx43 tyrosine; also recorded: mediates tyrosine phosphorylation of connexin 43”.

And the “Ser-phosphorylation of connexin 43” value (connexin 43 (Cx43); in some experiments)?
Its value is “decrease Ser-phosphorylation”.

And the “reversal of hypoxia-induced decrease of calcium wave propagation” value [3]?
Its value is “completely reversed”.

What about the “average relative volume during stress” value (Ventricular myocytes) of the same compound?
Its value is 0.93±0.05.

And the EC50 (connexin hemi-channels [4]; 0.1 pM to 10 nM, sigmoidal function, read-out: ED50 for reduction of stress-induced calcein uptake)?
Its EC50 is 3.3 ± 5.3 pM.

What about the “average fluorescence intensity during maximal inhibition, above control” value (connexin hemi-channels [4]; stress buffer (stress alone 36.2±4.18% higher)) of the same compound?
The value was 6.9±1.7 % above control.

And the “effect on uptake of calcein” value (connexin hemi-channels [4]; stress, 0.1 pM to 10 nM)?
Its value is “dose-dependently reduced the uptake of calcein”.

What about the level at time molar at 504 h (in vivo; 11 pmol/kg/min) of the same compound?
Its level at time molar at 504 h is 1.7 ± 0.4 nM.

What about the level at time molar at 504 h (in vivo; 110 pmol/kg/min) of the same compound?
The level at time molar at 504 h was 5.7 ± 0.4 nM.

And the level at time molar at 504 h (in vivo; 1100 pmol/kg/min)?
The level at time molar at 504 h was 93.7 ± 12.3 nM.

Reference: patent publication US7153822B2, “Compositions and methods for modulating connexin hemichannels” (Wyeth, priority 2002, dated 2006)
